# Laboratory results as given in US7923446B2, “Biaryl sulfonamides and methods for using same” (Wyeth LLC, priority 2003, dated 2011).
# Read-outs that look alike come from different tables or passages of the source.
# Molecular target: T1, purified full-length human recombinant aggrecanase-1 (rAgg1) (Homo sapiens, UniProt O75173)
# T1 construct: purified full-length human recombinant aggrecanase-1
# T1 sequence (O75173 213-837): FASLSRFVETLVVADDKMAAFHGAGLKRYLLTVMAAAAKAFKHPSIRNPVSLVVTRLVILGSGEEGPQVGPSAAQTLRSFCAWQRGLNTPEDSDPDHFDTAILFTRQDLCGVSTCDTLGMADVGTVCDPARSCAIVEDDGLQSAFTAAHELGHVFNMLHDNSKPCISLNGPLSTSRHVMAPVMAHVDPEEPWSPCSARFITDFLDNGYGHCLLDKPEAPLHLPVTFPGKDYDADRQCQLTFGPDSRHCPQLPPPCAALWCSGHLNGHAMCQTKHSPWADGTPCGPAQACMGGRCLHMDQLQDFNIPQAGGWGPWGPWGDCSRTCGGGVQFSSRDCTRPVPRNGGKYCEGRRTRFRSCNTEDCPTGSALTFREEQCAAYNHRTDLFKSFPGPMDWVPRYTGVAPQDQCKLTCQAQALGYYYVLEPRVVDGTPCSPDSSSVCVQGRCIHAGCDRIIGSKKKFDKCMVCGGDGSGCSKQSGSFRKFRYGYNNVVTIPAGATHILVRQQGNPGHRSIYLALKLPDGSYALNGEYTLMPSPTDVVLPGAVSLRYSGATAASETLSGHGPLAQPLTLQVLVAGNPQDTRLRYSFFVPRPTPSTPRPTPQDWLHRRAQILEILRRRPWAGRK
# Experiment: Aggrecanase-1 FRET Assay
# Type: biochemical
# [1] = rAgg1 5 μg/ml, substrate Abz-[…]-Dap(Dnp) 25 μM, 30° C., pH 7.5, read-out: IC50
# Description: The percentage activity remaining in the presence of inhibitor is plotted as a function of inhibitor concentration and the IC50 value is determined by fitting the data to the following equation: % activity=100IC50/(I0+IC50).
# The following protocol was used: • Fluorimeter was started and temperature set to 30° C., about 30 min before setting up the assay. The following reagents are used: • Buffer: 50 mM HEPES, pH 7.5, 100 mM NaCl, 5 mM CaCl2, 0.1% CHAPS, 5% glycerol. • rAgg1: 5 μg/ml (final concentration in the assay): • Substrate: Abz-[sequence]-Dap(Dnp) (Abz:o-aminobenzoyl; Dnp: 2,4 dinitrophenyl) (Anaspec Inc), stored at 4° C.). Make a stock at 2 mg/ml in 100% DMSO. […] Store unused 100% DMSO stock at −80° C. […] Make up inhibitors at 10× starting concentration in 100% DMSO. Perform serial dilutions (in duplicate) across the nunc plate in 100% DMSO; • Dilution plates: Nunc, polypropylene low binding (Nalgene) • Assay plate: Fluoronunc (Nalgene) • Fluorimeter: GeminiXS (Molecular Devices).
# The assay is performed as follows (The plates are set up so that the final column (12) is used for controls. Total reaction volume is 100 μl. Each compound is assayed in duplicate, so 4 compounds are screened per plate):
# 1) Add buffer to the entire 96-well plate (30 μl/well).
# Add 20 μl/well to all wells. Mix 6 times.
# Mix 6 times. To wells 12A-F, add 10× controls (see reference compounds below).
# The reaction is monitored for 30-40 min at 30° C. λex: 340 nm and λem: 420 nm). The fluorescence is linear during this time and the slope of the line (Vmax/sec) represents the initial reaction rate, υ. The maximal rate of cleavage of substrate is determined in the absence of inhibitor.
# The percent inhibition of activity in the presence of inhibitor is calculated as follows:
# The IC50 was obtained by fitting the initial rate, υ, or % inhibition at each concentration of inhibitor to the following equation in Excel. y=(a−d)/(1+C/IC50)^n)+d
# This model describes a sigmoidal curve with an adjustable baseline, a. y is the % inhbition or initial rate of reaction, C is the concentration of inhibitor under test. a is the limiting response as C approaches zero. As C increases without bound y tends toward its lower limit, d. y is halfway between the lower and upper asymptotes when C=IC50. n is the Hill coefficient. The sign of n is positive when the response increases with increasing dose and is negative when the response decreases with increasing dose (inhibition).
Structure (SMILES),IC50 [1] [nM],IC50 [nM]
CC(C)[C@@H](NS(=O)(=O)c1ccc(-c2ccc(COc3cccc(C(=O)c4ccccc4)c3)cc2)cc1)C(=O)O [Example 1H],230,–
CC(C)[C@@H](NS(=O)(=O)c1ccc(-c2ccc(COc3ccc4ccccc4n3)cc2)cc1)C(=O)O [Example 1E],600,–
"Cc1cc(OCc2ccc(-c3ccc(S(=O)(=O)N[C@@H](C(=O)O)C(C)C)cc3)cc2)c2ccccc2n1 [Example 1D, D-3-Methyl-2-[4′-(2-methyl-quinolin-4-yloxymethyl)-biphenyl-4-sulfonylamino]-butyric acid]",400,–
"COc1cc(COc2ccc(-c3ccc(S(=O)(=O)N[C@@H](C(=O)O)C(C)C)cc3)cc2OC)cc(OC)c1 [Example 11B, 2-[4′-(3,5-Dimethoxy-benzyloxy)-3′-methoxy-biphenyl-4-sulfonylamino]-3-methyl-butyric acid]",16700,–
"CC(C)[C@@H](NS(=O)(=O)c1ccc(-c2ccc(OCc3ccc4ccccc4c3)cc2)cc1)C(=O)O [Example 2C, D-3-Methyl-2-[4′-(naphthalen-2-ylmethoxy)-biphenyl-4-sulfonylamino]-butyric acid]",800,–
"CC(C)[C@@H](NS(=O)(=O)c1ccc(-c2ccc(OCc3cc4ccccc4o3)cc2)cc1)C(=O)O [Example 2B, D-2-[4′-(Benzofuran-2-ylmethoxy)-biphenyl-4-sulfonylamino]-3-methyl-butyric acid]",1500,–
"CC(=O)NCc1ccc(-c2ccc(S(=O)(=O)N[C@@H](C(=O)O)C(C)C)cc2)cc1 [Example 5A, D-2-[4′-(Acetylamino-methyl)-biphenyl-4-sulfonylamino]-3-methyl-butyric acid]",400,–
"CC(C)[C@@H](NS(=O)(=O)c1ccc(-c2ccc(O)cc2)cc1OC(F)(F)F)C(=O)O [Example 12A, 2-(4′-Hydroxy-3-trifluoromethoxy-biphenyl-4-sulfonylamino)-3-methyl-butyric acid]",200000,–
"Cc1c(COc2ccc(-c3ccc(S(=O)(=O)N[C@@H](C(=O)O)C(C)C)cc3)cc2)oc2ccccc12 [Example 2A, D-3-Methyl-2-[4′-(3-methyl-benzofuran-2-ylmethoxy)-biphenyl-4-sulfonylamino]-butyric acid]",1000,–
"Cc1cc2ccccc2nc1OCc1ccc(-c2ccc(S(=O)(=O)N[C@@H](C(=O)O)C(C)C)cc2)cc1 [Example 1A, 3-Methyl-2-[4′-(3-methyl-quinolin-2-yloxymethyl)-biphenyl-4-sulfonylamino]-butyric acid]",200,–
"CC(C)[C@@H](NS(=O)(=O)c1ccc(-c2ccc(OC(=O)Nc3ccc(Oc4ccccc4)cc3)cc2)cc1)C(=O)O [Example 6B, D-3-Methyl-2-[4′-(4-phenoxy-phenylcarbamoyloxy)-biphenyl-4-sulfonylamino]-butyric acid]",–,600
"CC(C)[C@@H](NS(=O)(=O)c1ccc(-c2ccc(OC(=O)Nc3ccc4ccccc4c3)cc2)cc1)C(=O)O [Example 6C, D-3-Methyl-2-[4′-(naphthalen-2-ylcarbamoyloxy)-biphenyl-4-sulfonylamino]-butyric acid]",–,1100
"CC(C)[C@@H](NS(=O)(=O)c1ccc(-c2ccc(OC(=O)Nc3cc4ccccc4o3)cc2)cc1)C(=O)O [Example 6S, N-[(4′-{[(1-benzofuran-2-ylamino)carbonyl]oxy}-1,1′-biphenyl-4-yl)sulfonyl]-D-valine]",–,4500
"Cc1cc(COc2ccc(-c3ccc(S(=O)(=O)N[C@@H](C(=O)O)C(C)C)cc3)cc2)c2ccccc2n1 [Example 2K, D-3-Methyl-2-[4′-(2-methyl-quinolin-4-ylmethoxy)-biphenyl-4-sulfonylamino]-butyric acid]",500,–
"CC(C)[C@@H](NS(=O)(=O)c1ccc(-c2ccc(OC(=O)Nc3ccc(F)cc3)cc2)cc1)C(=O)O [Example 6A, 2-[4′-(4-Fluoro-phenylcarbamoyloxy)-biphenyl-4-sulfonylamino]-3-methyl-butyric acid]",–,3600
"CC(C)[C@@H](NS(=O)(=O)c1ccc(-c2ccc(O)cc2)cc1C(F)(F)F)C(=O)O [Example 12B, 2-(4′-Hydroxy-3-trifluoromethyl-biphenyl-4-sulfonylamino)-3-methyl-butyric acid]",67000,–
"CC(C)[C@@H](NS(=O)(=O)c1ccc(-c2ccc(COc3nc4ccccc4s3)cc2)cc1)C(=O)O [Example 1F, 2-[4′-(Benzothiazol-2-yloxymethyl)-biphenyl-4-sulfonylamino]-3-methyl-butyric acid]",1500,–
"Cc1c(C(=O)Oc2ccc(-c3ccc(S(=O)(=O)N[C@@H](C(=O)O)C(C)C)cc3)cc2)oc2ccccc12 [Example 7A, D-3-Methyl-benzofuran-2-carboxylic acid 4′-(1-carboxy-2-methyl-propylsulfamoyl)-biphenyl-4-yl ester]",90,–
"CC(C)[C@@H](NS(=O)(=O)c1ccc(-c2ccc(OC(=O)c3cc4ccccc4o3)cc2)cc1)C(=O)O [Example 7B, Benzofuran-2-carboxylic acid 4′-(1-carboxy-2-methyl-propylsulfamoyl)-biphenyl-4-yl ester]",345,–
"CC(C)[C@@H](NS(=O)(=O)c1ccc(-c2ccc(COc3ccc(C(F)(F)F)cn3)cc2)cc1)C(=O)O [Example 1B, 3-Methyl-2-[4-(5-trifluoromethyl-pyridin-2-yloxymethyl)-biphenyl-4-sulfonylamino]-butyric acid]",800,–
"CC(C)[C@@H](NS(=O)(=O)c1ccc(-c2ccc(OCc3ccccc3)cc2)cc1)C(=O)O [Example 2D, D-2-(4′-Benzyloxy-biphenyl-4-sulfonylamino)-3-methyl-butyric acid]",5500,–
"COc1cc(-c2ccc(S(=O)(=O)N[C@@H](C(=O)O)C(C)C)cc2)ccc1OCc1ccc2ccccc2c1 [Example 11A, 3-Methyl-2-[4′-(naphthalen-2-ylmethoxy)-3′-methoxy-biphenyl-4-sulfonylamino]-butyric acid]",8900,–
